What was measured:
[1] = Antiproliferative activity against human SGC7901 cells assessed as growth inhibition after 72 hrs by MTT assay; type: functional; settings: SGC-7901, 72 h
HCT-116 = assay: Antiproliferative activity against human HCT116 cells assessed as growth inhibition after 72 hrs by MTT assay; type: functional; settings: HCT-116, 72 h
[2] = Antiproliferative activity against human HLF assessed as growth inhibition after 72 hrs by MTT assay; settings: HLF cells

| Structure (SMILES) | GI50 (HCT-116) [µM] | GI50 [1] [µM] | GI50 at 72 h [2] [µM] |
| --- | --- | --- | --- |
| O[C@H](COCCOC[C@@H](O)Cc1cn(-c2ccc(N3CCOCC3)cc2)nn1)Cc1ccc(-c2ccccc2)cc1 | 8.3 | 20.7 | > 100 |
| O[C@H](COCCOC[C@@H](O)Cc1cn(-c2cncc3ccccc23)nn1)Cc1ccc(-c2ccccc2)cc1 | 17.8 | 29.3 | 10.8 |
| O[C@H](COCCOC[C@@H](O)Cc1cn(Cc2cccc(-c3ccccc3)c2)nn1)Cc1ccc(-c2ccccc2)cc1 | 7.2 | 10.6 | > 100 |
| O[C@H](COCCOC[C@@H](O)Cc1cn(Cc2ccc(Oc3ccccc3)cc2)nn1)Cc1ccc(-c2ccccc2)cc1 | 3.4 | 4.5 | 22.8 |
| O[C@H](COCCOC[C@@H](O)Cc1c[nH]nn1)Cc1ccc(-c2ccccc2)cc1 | > 100 | > 100 | > 100 |
| O[C@H](COCCOC[C@@H](O)Cc1cn(-c2ccc3c(c2)OCCO3)nn1)Cc1ccc(-c2ccccc2)cc1 | 16.5 | 6.4 | 5.2 |
| O=C1COc2ccc(-n3cc(C[C@H](O)COCCOC[C@@H](O)Cc4ccc(-c5ccccc5)cc4)nn3)cc2N1 | 42.5 | 15.2 | > 100 |
| O[C@H](COCCOC[C@@H](O)Cc1cn(Cc2ccc(C(F)(F)F)cc2)nn1)Cc1ccc(-c2ccccc2)cc1 | 2.5 | 8.7 | 29.8 |
| O[C@H](COCCOC[C@@H](O)Cc1cn(-c2ccc3[nH]ccc3c2)nn1)Cc1ccc(-c2ccccc2)cc1 | 15.5 | 45.6 | > 100 |
| COc1cccc2c1C(=O)c1c(O)c3c(c(O)c1C2=O)C[C@@](O)(C(=O)CO)C[C@@H]3O[C@H]1C[C@H](N)[C@H](O)[C@H](C)O1 [DOXORUBICIN] | 0.15 | 0.55 | 0.33 |
| O[C@H](COCCOC[C@@H](O)Cc1cn(-c2cccnc2)nn1)Cc1ccc(-c2ccccc2)cc1 | 46.8 | 29.8 | > 100 |
| O[C@H](COCCOC[C@@H](O)Cc1cn(-c2cccs2)nn1)Cc1ccc(-c2ccccc2)cc1 | 33.4 | 33.4 | > 100 |
| CCCCCCCCCC[C@H](O)COCCOC[C@@H](O)CCCCCCCCCCCCC1=C[C@H](C)OC1=O | 0.181 | 0.076 | 27.8 |
| O[C@H](COCCOC[C@@H](O)Cc1cn(-c2cncnc2)nn1)Cc1ccc(-c2ccccc2)cc1 | > 100 | > 100 | > 100 |

Further lines, with some results ahead:

| GI50 (HCT-116) [µM] | Structure (SMILES) | GI50 [1] [µM] | GI50 at 72 h [2] [µM] |
| --- | --- | --- | --- |
| 3 | CC1=C(CCCCCCCCCCn2cc(C[C@H](O)COCCOC[C@@H](O)Cc3ccc(-c4ccccc4)cc3)nn2)C(=O)c2ccccc2C1=O | 0.39 | 22.6 |
| 0.6 | COC1=C(OC)C(=O)C(CCCCCCCCCCn2cc(C[C@H](O)COCCOC[C@@H](O)Cc3ccc(-c4ccccc4)cc3)nn2)=C(C)C1=O | 3.8 | 18.3 |
| 0.9 | CC1=C(C)C(=O)C(CCCCCCCCCCn2cc(C[C@H](O)COCCOC[C@@H](O)Cc3ccc(-c4ccccc4)cc3)nn2)=C(C)C1=O | 0.35 | > 25 |
| 5 | COC1=C(OC)C(=O)C(CCCCCCn2cc(C[C@H](O)COCCOC[C@@H](O)Cc3ccc(-c4ccccc4)cc3)nn2)=C(C)C1=O | 16.6 | > 50 |
| 8.6 | O[C@H](COCCOC[C@@H](O)Cc1cn(Cc2ccc3ccccc3c2)nn1)Cc1ccc(-c2ccccc2)cc1 | 12.1 | 19.8 |
| 4 | COC1=C(C)C(=O)C(CCCCCCCCCCn2cc(C[C@H](O)COCCOC[C@@H](O)Cc3ccc(-c4ccccc4)cc3)nn2)=C(C)C1=O | 0.505 | 35.1 |
| 8.8 | N#Cc1ccc(Cn2cc(C[C@H](O)COCCOC[C@@H](O)Cc3ccc(-c4ccccc4)cc3)nn2)cc1 | 7.7 | 36.6 |
| 1.5 | COC1=C(OC)C(=O)C(CCCCCCCCCCCCCCCn2cc(C[C@H](O)COCCOC[C@@H](O)Cc3ccc(-c4ccccc4)cc3)nn2)=C(C)C1=O | 2.49 | > 50 |
| 9.2 | O=c1[nH]c2ccc(-n3cc(C[C@H](O)COCCOC[C@@H](O)Cc4ccc(-c5ccccc5)cc4)nn3)cc2s1 | 10.5 | 47.7 |

— ChEMBL document CHEMBL3232896, “Biological evaluation of new mimetics of annonaceous acetogenins: alteration of right scaffold by click linkage with aromatic functionalities” (Eur J Med Chem, 2014)
